Results from ChEMBL document CHEMBL3885881, “DrugMatrix”.

Species on record: Rattus norvegicus
Experiment: DrugMatrix - Regimen: Daily Repeat
Assay type: toxicity, organism-based, Sprague-Dawley
Design: regimen Daily Repeat, gender Male, age 6-8 weeks
Conditions: in vivo, po, route oral GAVAGE, vehicle .5 % CMC; for ABSOLUTE LYMPHOCYTE / ABSOLUTE MONOCYTE / ABSOLUTE SEGMENTED NEUTROPHIL / BASOPHIL / EOSINOPHIL / ERYTHROCYTE COUNT / HEMATOCRIT / HEMOGLOBIN / LEUKOCYTE COUNT / LYMPHOCYTE / MEAN CORPUSCULAR HEMOGLOBIN / MEAN CORPUSCULAR HEMOGLOBIN CONCENTRATION / MEAN CORPUSCULAR VOLUME / MONOCYTE / NEUTROPHIL / NUCLEATED RED BLOOD CELLS / PLATELET COUNT / ABSOLUTE BASOPHIL / ABSOLUTE EOSINOPHIL: tissue Blood; for ALANINE AMINOTRANSFERASE / ALBUMIN / ALKALINE PHOSPHATASE / ASPARTATE AMINOTRANSFERASE / BLOOD UREA NITROGEN / CARBON DIOXIDE / CHLORIDE / CHOLESTEROL / CREATINE PHOSPHOKINASE / CREATININE / GLUCOSE / LACTATE DEHYDROGENASE / LIPASE / PHOSPHORUS / POTASSIUM / SODIUM / TOTAL BILIRUBIN / TOTAL PROTEIN / URIC ACID: tissue Plasma
[1] = 11 mg/kg, 120 h, dose level Low, time 5 day
[2] = 110 mg/kg, 72 h, dose level M1, time 3 day
[3] = 110 mg/kg, 120 h, dose level M1, time 5 day

SMILES: COc1ccc2c3c1O[C@H]1C[C@@H](O)C=C[C@@]31CCN(C)C2 [GALANTAMINE]
- ABSOLUTE LYMPHOCYTE [1]: 13451.33 CELLS/uL
- ABSOLUTE MONOCYTE [1]: 58.33 CELLS/uL
- ABSOLUTE SEGMENTED NEUTROPHIL [1]: 1323.67 CELLS/uL
- BASOPHIL [1]: 0%
- EOSINOPHIL [1]: 0%
- ERYTHROCYTE COUNT [1]: 5.81 x10E6/uL
- HEMATOCRIT [1]: 35.73%
- HEMOGLOBIN [1]: 14.27 G/DL
- LEUKOCYTE COUNT [1]: 14.83 x10E3/uL
- LYMPHOCYTE [1]: 90.33%
- MEAN CORPUSCULAR HEMOGLOBIN [1]: 24.57 pg
- MEAN CORPUSCULAR HEMOGLOBIN CONCENTRATION [1]: 39.93 G/DL
- MEAN CORPUSCULAR VOLUME [1]: 61.57 fL
- MONOCYTE [1]: 0.33%
- NEUTROPHIL [1]: 9.33%
- NUCLEATED RED BLOOD CELLS [1]: 0 /100WBC
- PLATELET COUNT [1]: 1163.33 x10E3/uL
- ALANINE AMINOTRANSFERASE [1]: 48.67 u/L
- ALBUMIN [1]: 4.27 G/DL
- ALKALINE PHOSPHATASE [1]: 399 u/L
- ASPARTATE AMINOTRANSFERASE [1]: 74.67 u/L
- BLOOD UREA NITROGEN [1]: 20.33 mg/dL
- CARBON DIOXIDE [1]: 28.33 mmol/L
- CHLORIDE [1]: 99.67 MEQ/L
- CHOLESTEROL [1]: 76.67 mg/dL
- CREATINE PHOSPHOKINASE [1]: 330.67 u/L
- CREATININE [1]: 0.19 mg/dL
- GLUCOSE [1]: 158.67 mg/dL
- LACTATE DEHYDROGENASE [1]: 135 u/L
- LIPASE [1]: 10 u/L
- PHOSPHORUS [1]: 12.37 mg/dL
- POTASSIUM [1]: 6.09 MEQ/L
- SODIUM [1]: 144.2 MEQ/L
- TOTAL BILIRUBIN [1]: 0.23 mg/dL
- TOTAL PROTEIN [1]: 6.17 G/DL
- URIC ACID [1]: 1.33 mg/dL
- ABSOLUTE BASOPHIL [2]: 0 CELLS/uL
- ABSOLUTE EOSINOPHIL [2]: 37.33 CELLS/uL
- ABSOLUTE LYMPHOCYTE [2]: 14169 CELLS/uL
- ABSOLUTE MONOCYTE [2]: 124.67 CELLS/uL
- ABSOLUTE SEGMENTED NEUTROPHIL [2]: 769 CELLS/uL
- BASOPHIL [2]: 0%
- EOSINOPHIL [2]: 0.33%
- ERYTHROCYTE COUNT [2]: 5.81 x10E6/uL
- HEMATOCRIT [2]: 36.57%
- HEMOGLOBIN [2]: 14.27 G/DL
- LEUKOCYTE COUNT [2]: 15.1 x10E3/uL
- LYMPHOCYTE [2]: 94%
- MEAN CORPUSCULAR HEMOGLOBIN [2]: 24.57 pg
- MEAN CORPUSCULAR HEMOGLOBIN CONCENTRATION [2]: 39 G/DL
- MEAN CORPUSCULAR VOLUME [2]: 62.97 fL
- MONOCYTE [2]: 0.67%
- NEUTROPHIL [2]: 5%
- NUCLEATED RED BLOOD CELLS [2]: 0 /100WBC
- PLATELET COUNT [2]: 1366 x10E3/uL
- ALANINE AMINOTRANSFERASE [2]: 64.33 u/L
- ALBUMIN [2]: 4.03 G/DL
- ALKALINE PHOSPHATASE [2]: 411.33 u/L
- ASPARTATE AMINOTRANSFERASE [2]: 91 u/L
- BLOOD UREA NITROGEN [2]: 16 mg/dL
- CARBON DIOXIDE [2]: 33 mmol/L
- CHLORIDE [2]: 102.67 MEQ/L
- CHOLESTEROL [2]: 70.67 mg/dL
- CREATINE PHOSPHOKINASE [2]: 247.67 u/L
- CREATININE [2]: 0.2 mg/dL
- GLUCOSE [2]: 131.33 mg/dL
- LACTATE DEHYDROGENASE [2]: 252 u/L
- LIPASE [2]: 8.33 u/L
- PHOSPHORUS [2]: 11.67 mg/dL
- POTASSIUM [2]: 7.08 MEQ/L
- SODIUM [2]: 144.3 MEQ/L
- TOTAL BILIRUBIN [2]: 0.23 mg/dL
- TOTAL PROTEIN [2]: 5.5 G/DL
- URIC ACID [2]: 1.43 mg/dL
- ABSOLUTE BASOPHIL [3]: 0 CELLS/uL
- ABSOLUTE EOSINOPHIL [3]: 67.67 CELLS/uL
- ABSOLUTE LYMPHOCYTE [3]: 15229.33 CELLS/uL
- ABSOLUTE MONOCYTE [3]: 0 CELLS/uL
- ABSOLUTE SEGMENTED NEUTROPHIL [3]: 1603 CELLS/uL
- BASOPHIL [3]: 0%
- EOSINOPHIL [3]: 0.33%
- ERYTHROCYTE COUNT [3]: 5.71 x10E6/uL
- HEMATOCRIT [3]: 35.4%
- HEMOGLOBIN [3]: 14.07 G/DL
- LEUKOCYTE COUNT [3]: 16.9 x10E3/uL
- LYMPHOCYTE [3]: 90%
- MEAN CORPUSCULAR HEMOGLOBIN [3]: 24.67 pg
- MEAN CORPUSCULAR HEMOGLOBIN CONCENTRATION [3]: 39.77 G/DL
- MEAN CORPUSCULAR VOLUME [3]: 62.03 fL
- MONOCYTE [3]: 0%
- NEUTROPHIL [3]: 9.67%
- NUCLEATED RED BLOOD CELLS [3]: 0 /100WBC
- PLATELET COUNT [3]: 1316.67 x10E3/uL
- ALANINE AMINOTRANSFERASE [3]: 48 u/L
- ALBUMIN [3]: 4.1 G/DL
- ALKALINE PHOSPHATASE [3]: 401.67 u/L
- ASPARTATE AMINOTRANSFERASE [3]: 99 u/L
- BLOOD UREA NITROGEN [3]: 14.33 mg/dL
- CARBON DIOXIDE [3]: 24.67 mmol/L
- CHLORIDE [3]: 101.67 MEQ/L
- CHOLESTEROL [3]: 60.33 mg/dL
- CREATINE PHOSPHOKINASE [3]: 541 u/L
- CREATININE [3]: 0.27 mg/dL
- GLUCOSE [3]: 132.67 mg/dL
- LACTATE DEHYDROGENASE [3]: 653 u/L
- LIPASE [3]: 11 u/L
- PHOSPHORUS [3]: 13 mg/dL
- POTASSIUM [3]: 6.92 MEQ/L
- SODIUM [3]: 143.03 MEQ/L
- TOTAL BILIRUBIN [3]: 0.23 mg/dL
- TOTAL PROTEIN [3]: 5.77 G/DL
- URIC ACID [3]: 1.8 mg/dL
